{"source": "patent US20220362276A1", "about": "“Small Molecule Inhibitors of Viral Replication” (The Trustees of Princeton University, priority 2019, published 2022)", "key": {"full-length KernowC1p6": {"system": "full-length KernowC1p6", "experiment": "RT-qPCR of HEV RNA, full-length KernowC1p6 in Huh7 cells", "format": "cell-based, hepatitis E virus", "conditions": "6.25-25 μM isocotoin, day 6", "description": "Quantification of HEV RNA by RT-qPCR Assay. Huh7 cells were seeded 42,000 cells/well in 24-well plates. One day post-seeding, the cells were transfected with 10 ng/well KernowC1p6 or KernowC1p6-GAD in vitro transcribed RNA. The next day, the medium on the cells transfected with KernowC1p6 was changed to 0.1% DMSO medium containing 25 μM, 12.5 μM, 6.25 μM, or 0 μM isocotoin. The negative control cells transfected with KernowC1p6-GAD were maintained in medium with 0.1% DMSO. The media on the cells was changed every 2 days to fresh drug-containing or DMSO-containing media. On day 6, cells were harvested and lysed in RLT buffer using 350 μL per well. Cell lysates were homogenized by pipetting 6-7 times with a needle syringe. Total RNA was extracted using BioBasic RNA MiniPreps SuperKit (Amherst, N.Y.). RT-qPCR was performed on the samples using qScript XLT 1-Step RT-qPCR ToughMix (Quanta Bio) according to the manufacturer's instructions. In vitro transcribed KernowC1p6 RNA of known concentration was serially diluted 1:10 and included as controls to generate a standard curve to calculate absolute RNA copies/μL in the samples."}, "[1]": {"system": "translation of T7-tagBFP-Gluc", "experiment": "Translation inhibition assay (T7-tagBFP-Gluc RNA in Huh7 cells)", "format": "cell-based", "conditions": "4 days", "from_the_text": "Generation of T7-tagBFP-Gluc. To make the T7-TagBFP-GLuc construct, SP6-TagBFP-2A-FLuc was used as a template and the primers PU-O-6099 and PU-O-6100 were designed to partially anneal immediately upstream and downstream of the SP6 promoter. The unbound portions of PU-O-6099 and PU-O-6100 contained the T7 promoter sequence. […] Next, PCR amplification of the T7-TagBFP-2A backbone was completed using the Q5® High-Fidelity DNA Polymerase and PU-O-6101 and PU-O-6102 as the primers. […] The Gluc insert was then ligated to the T7-TagBFP-2A backbone using the In-Fusion® HD Cloning Kit.\nTranslation Inhibition Assay. Huh7 cells were seeded at 6,250 cells per well in 96-well format. The cells were then transfected with 50 ng T7-TagBFP-Gluc in vitro transcribed RNA per well. Five hours post-transfection, transfection medium was changed to medium containing isocotoin, ribavirin, cycloheximide, or roclagamide at 6 or 7 different concentrations. DMSO concentration was kept constant in all the wells at 0.125%. For each drug dose, triplicate wells were tested. On day four post-transfection, a luciferase assay was performed on supernatant media to measure Gluc expression."}, "[2]": {"system": "SHEV-3/Gluc (genotype 3, swine-derived)", "experiment": "Dose titration against SHEV-3/Gluc replicon", "conditions": "genotype 3, poor replicative capacity"}}, "note": "“Also recorded” adds a separate entry of the source."}
{"smiles": "COc1cc(O)cc(O)c1C(=O)c1ccccc1", "note": "[isocotoin, 4-benzoyl-5-methoxybenzene-1,3-diol]", "values": [{"measurement": "inhibition of full-length KernowC1p6 replication, in words", "setting": "full-length KernowC1p6", "result": "dose-dependent manner; also recorded: inhibits replication"}, {"measurement": "effect on translation / Gluc levels, in words", "setting": "[1]", "result": "did not lead to a significant decrease in Gluc levels; also recorded: do not inhibit translation"}, {"measurement": "inhibition of SHEV-3/Gluc replication, in words", "setting": "[2]", "result": "modest inhibitory effect; also recorded: inhibits replication"}]}
